Measured values: patent US9572760B2, “Uses of compounds and mixtures from Antrodia cinnamomea mycelia” (Simpson Biotech Co., Ltd., priority 2013, dated 2017)

Test system: HSC
Experiment: HSC proliferation by BrdU assay
Format: cell-based
Details: 24-80 μM; for HSC proliferation (BrdU assay): 24 h, 48 h and 72 h
Experimental: The Cell Proliferation ELISA, BrdU kit was designed to quantitate cell proliferation bases on the measurement of BrdU incorporation during DNA synthesis in proliferation cells. Briefly, cells (1×10^4 cells/well) were seeded in 100 μl medium in a 96-well plate (Nunc, Denmark) and cultured for 24 h to allow the cells to attach and then treated with three different concentrations ([…]) of either Compound A, B, C and D for 24 h, 48 h and 72 h and the plates were incubated in 37° C. After incubation, the culture medium was labeled with 10 μl/well BrdU (Roche Diagnostic Inc.), and the cells were reincubated for addition 16 h at 37° C. Labeling medium was removed using 10 min centrifuge at 200×g and blow dried. Cells were fixed using 200 μl FixDenat solution and incubated for 30 min at room temperature. Removing the FixDenat solution, 100 μl of anti-BrdU-POD was added and incubated for 90 min at room temperature. After the incubation period, microplates were washed three times with PBS buffer and 100 μl substrate solution was added and incubated for 30 min. Stop solution was added (25 μl of 1 M H2SO4) and absorbance of the samples was measured using ELISA reader at 450 nm.

Structure (SMILES) | potency of effect on HSC proliferation and apoptosis compared to other compounds | HSC proliferation (BrdU assay)
CC(C)=CCOc1ccc(C2=C(CC(C)C)C(=O)NC2=O)cc1 [Compound B, 3-isobutyl-4-[4-(3-methyl-2-butenyloxy)phenyl]-1H-pyrrol-2,5-dione] | most potent effect | markedly proliferation inhibition
CC(C)=CCOc1ccc(C2=C(CC(C)C)C(=O)N(O)C2=O)cc1 [Compound C, 3-isobutyl-4-[4-(3-methyl-2-butenyloxy)phenyl]-1H-pyrrol-1-ol-2,5-dione] | – | markedly proliferation inhibition
